Measured values as given in US5614562A, “Method of treating drug resistant tumor cells using organoselenones” (The University of Sourthern California, priority 1992, dated 1997).
Converted amounts (≈) assume the structure as drawn.

What was measured:
[1] = Swain-Scott product competition of sulfur nucleophiles vs NBP (second-order rate constant ratios); type: physicochemical; details: for log(kS/knbp): S2O3^2- vs NBP, 37° C., 10 h, 52% aqueous acetone, mean ± S.D.
From the text: (§1) The properties of nucleophilicity and electivity can be quantitatively expressed as n and s constants in the Swain-Scott linear free energy relationship. It has been shown that s and n constants of biological alkylating agents and nucleophiles, respectively, can be readily determined with high precision, using 4-(4-nitrobenzyl)pyridine (NBP) as a competitive substrate for alkyl product formation (Spears, C. P. Mol. Pharmacl.19:496-504,1981; Barbin,A.,Bereziat, A., O'Neill, I. K., and Bartsch, H. Chem.-Biol. Interact,73:261-277, 1990; Kang, S. I., and Spears,C. P. J. Med. Chem. 33:1544-1547, 1990). Broad-spectrum antitumor alkylating agents show uniformly high s constants Spears, C. P. Mol.Pharmacol. 19:496-504, 1981; in contrast, mutagenically efficient alkylating agents show low values (Peterson,A. R., Landolph, J. R., Peterson, H., Spears, C. P., and Heidelberger, C. Cancer Res. 41:3095-3099, 1981; Barbin, A., and Bartsch, H. Mut. Res.215:95-106, 1989).
(§2) FIG. 1 is a Swain-Scott plot of the ratio of second-order rate constants, log (ky /knbp) for several model sulfur, nitrogen, and oxygen nucleophiles in their reactions with 2-chloroethyl 4-methoxy-phenyl selenone ("CEMOS"), vs. their published nucleophilicity nCH3 Br constants. Values of n were taken to be 2.72 for acetate (AcO--), 3.3 for ascorbate, 3.6 for pyridine, 4.0 for azide (N3), 3.94 for nitrite, 5.1 for thiol (SH), 6.18 for sulfite (SO3^2-), 6.36 for thiosulfate (S2 O3^2-), and 6.6 for thiophosphate (HPSO3^2-) (derived from the Ogston "Competition Factor") (Ogston, A. G., Holiday, E. R., Philpot, J. S. L., and Stocken, L. A. Trans.Faraday Soc. 44:45-52, 1948).
Extrapolation of Eq. A predicts that the log (ky /knbp) values for the thiol nucleophiles should have ranged from 3 to 5. However, the measured ratios of second-order rate constants were approximately 100-fold lower than this expectation. Also, the linear regression relationship, Eq. B (FIG. 1), for correlation of log (ky /knbp) values vs. nCH3 Br constants gave a sulfur nucleophile selectivity constant, s, equal to 0.84, approximately one-half of the value for reaction with nitrogen and oxygen nucleophiles:
(§3) ^a By competition between S2 O3^2- and NBP log(kS
(§4) /knbp) or N3^- and NBP log(kN /knbp ) at
(§5) 37° C. and 10 h, in 52% aqueous acetone, using initial
(§6) concentrations of 0.0435 mM and 0.0217 mM of 2chloroethyl phenyl selenone
(§7) and nornitrogen mustard, respectively, as described. Values, experimental

[2] = literature value; cited from earlier work
[3] = tested on: P388 murine leukemia ascites cells; experiment: In vivo growth inhibition of P388 leukemia ascites in mice; parameters: species or system murine; BDF1 mice
Description: In FIG. 2 and Table II are shown the results of in vivo antitumor testing of 2-chloroethyl aryl selenones against murine P388 Leukemia ascites cells.
Examples 5-8 consisted of the use of 2-chloroethyl 4-methoxy-phenyl selenone to treat the mice. Examples 9-12 were the same as example 5 except 2-chloroethyl phenyl selenone was employed.
(§8) The maximally tolerated duration of the highest dose shown in FIG. 2 and Table II, 6 mg/kg/day i.p. of 2-chloroethyl phenyl selenone, was 10 days in a separate experiment. In the experiments shown, i.p. drug was administered for 5 consecutive days, Days 1-5, beginning the day after tumor inoculation (on Day 0).
Mice were inoculated i.p. with 1×10^6 cells of P388 murine leukemia ascites passaged in BDF1 mice, in a volume of 0.1 ml. The selenones were formulated in normal (0.9%, w/v) NaCl for an injection volume of 0.3 ml. Control mice (12 in each group) received i.p. saline alone comparative examples 1 and 2. For each dose level and drug, 6 mice per group were used.
The plateauing of weight increase, at Days 8-9, is consistent with classical Gompertizian tumor growth kinetics (Laird, A. K. Brit. J. Cancer 18:490-502, 1964). The delays observed in the time period before the onset of the exponential phase of weight increase are given in Table II, defined as the Growth Delay.
^a Calculated from Day at which weight first exceeded baseline (Day 0

HCT/VP35 = experiment: In vitro cytotoxicity, VP16 resistant HCT/VP35 human colon carcinoma; type: cell-based; details: for IC50: Homo sapiens, HCT/VP35, VP16 resistant, data provided by Bristol-Myers Laboratories; for ratio of IC50 values HCT/VP35 vs HCT116: IC50 divided by IC50 for HCT116
From the text: | HCT/VP35 human colon, VP16 resistant

HCT116 = experiment: In vitro cytotoxicity, HCT116 human colon carcinoma; type: cell-based; details: Homo sapiens, HCT-116; data provided by Bristol-Myers Laboratories
From the text: ^b Cell lines: HCT116 human colon (sensitive to VP16 and VM26)

HCT/VM46 = experiment: In vitro cytotoxicity, VM26 resistant HCT/VM46 human colon carcinoma; type: cell-based; details: for IC50: Homo sapiens, VM26 resistant, data provided by Bristol-Myers Laboratories; for ratio of IC50 values HCT/VM46 vs HCT116: IC50 divided by IC50 for HCT116
From the text: | HCT/VM46 human colon, VM26 resistant

[4] = type: physicochemical
L1210/0 = experiment: Cytotoxicity, 48-hr exposure of L1210/0 leukemia cells; type: cell-based, murine; details: Mus musculus, L1210/0; 48-hr exposure; read-out: IC50 L1210/0
From the text: (§9) Murine L1210 leukemia cells sensitive (L1210/0) and resistant (L1210/L-PAM)to L-phenylalanine mustard were obtained that are adaptable to either in vitro or in vivo passage.
(§10) Broad resistance of the L1210/L-PAM cell line is shown by the approximately 4-fold and 9-fold increases in IC50, compared to L1210/0, for L-PAM and mechlorethamine, respectively (Comparative Examples 3 and 4). […].

L1210/L-PAM = experiment: Cytotoxicity, 48-hr exposure of L-PAM resistant L1210/L-PAM leukemia cells; type: cell-based, murine; details: 48-hr exposure; for IC50: Mus musculus, L1210/LPAM, read-out: IC50 L1210/L-PAM
From the text: as §9, §10

[5] = Swain-Scott product competition of nitrogen and oxygen nucleophiles vs NBP (second-order rate constant ratios); type: physicochemical; details: for log(kN/knbp): N3^- vs NBP, 37° C., 10 h, 52% aqueous acetone, mean ± S.D.
From the text: as §1, §2
The slope of the linear regression equation through the 5 nitrogen and oxygen nucleophiles gives a Swain-Scott selectivity constant, s, equal to 1.79, by Eq. A, shown in FIG. 1:
as §3, §4, §5, §6, §7

[6] = tested on: 7 different human colon carcinoma cell lines; details: read-out: average IC50, NCI in vitro screen; cited from earlier work
[7] = tested on: HT29 human colon carcinoma cells; experiment: Growth inhibition cytotoxicity against HT29 human colon carcinoma cells (MER(+)); type: cell-based; details: HT-29
From the text: (Example 15) These cells are very high in the alkyltransferase enzyme for repair of DNA guanine O6-alkyl products, and therefore are considered strongly MER(+) in phenotype. Levels of this enzyme in HT29 cells have averaged about 0.5 pmol/mg protein in recent studies (K. Chan, et al., unpublished). […] Thus, the lack of cross-resistance to ethyleneimines by the present invention of 2-chloroethyl aryl selenones is not associated with resistence mediated by the alkyltransferase repair enzyme.

[8] = Acute intraperitoneal toxicity / maximally tolerated dose in mice; type: in vivo; details: 6 mg/kg/day i.p., separate experiment
Description: as §8

[9] = methanol, 35° C.; cited from earlier work
[10] = 1.0 mg/kg daily i.p., Days 1-5 (total 5 mg/kg), Ex. 6, Ex. 9
[11] = 2.0 mg/kg daily i.p., Days 1-5 (total 10 mg/kg), Ex. 7, Ex. 10
[12] = 4.0 mg/kg daily i.p., Days 1-5 (total 20 mg/kg), Ex. 8, Ex. 11

With `COc1ccc([Se](=O)(=O)CCCl)cc1` [2-chloroethyl 4-methoxy-phenyl selenone] the “selectivity within the thiol series” value [1] was “abnormally low”, the “measured ratios of second-order rate constants lower than expectation” value ([1]; sulfur nucleophiles vs. extrapolation of Eq. A) was “approximately 100 fold” and the “sulfur nucleophile selectivity constant, s” value ([1]; sulfur nucleophiles, Eq. B, FIG. 1) was 0.84. For the same molecule, the “alkylating activity reported (Kang and Spears 1990)” value [2] was 100%, the Growth delay ([3]; 0.5 mg/kg daily i.p., Days 1-5 (total 2.5 mg/kg), Ex. 5) was 0 days and the Growth delay [3, 10] was 0 days. The Growth delay [3, 11] was 3 days, the Growth delay [3, 12] was 7 days and the relative antitumor effectiveness ([3]; vs. parent 2-chloroethyl phenyl selenone) was “less effective than the parent 2-chloroethyl phenyl selenone”. The IC50 (HCT/VP35) was 0.6 µg/mL (≈ 2.13 µM), the “ratio of IC50 values HCT/VP35 vs HCT116” value (HCT/VP35) was 0.6 and the IC50 (HCT116) was 1.01 µg/mL (≈ 3.59 µM). For the same molecule, the IC50 (HCT/VM46) was 0.42 µg/mL (≈ 1.49 µM), the “ratio of IC50 values HCT/VM46 vs HCT116” value (HCT/VM46) was 0.4 and the “alkylating activity in the FIG. 1 experiments” value ([4]; FIG. 1 experiments) was 103%. The IC50 (L1210/0) was 360 nM, the “Ratio of IC50s (L1210/L-PAM vs L1210/0)” value (L1210/L-PAM) was 0.9 and the IC50 (L1210/L-PAM) was 360 nM. The “Swain-Scott selectivity constant, s (nitrogen and oxygen nucleophiles)” value ([5]; 5 nitrogen and oxygen nucleophiles, Eq. A, FIG. 1) was 1.79, the “susceptibility to aqueous hydrolysis” value ([5]; from intercept of Eq. A) was “extremely low susceptibility” and the “log (ky/knbp) at n=3.6” value ([5]; n=3.6 (pyridine)) was “nearly zero”. The “intercept of Eq. A, log (ky/knbp) vs. nCH3Br” value ([5]; nitrogen and oxygen nucleophiles, Eq. A, listed as CEMOS) was 6.40.
For `O=[Se](=O)(CCCl)c1ccccc1` [2-chloroethyl phenyl selenone], the “log(kS/knbp)” value [1] was 1.77 ± 0.05, the “log(kS/knbp)” value ([1]; listed as SKI-273) was 1.77±0.05 and the Growth delay [3, 10] was 4 days. The “inhibition of tumor growth by the lowest dose tested” value ([3]; 1 mg/kg/d i.p.) was “inhibition of tumor growth”, the Growth delay [3, 11] was 7 days and the Growth delay [3, 12] was 8 days. The Growth delay ([3]; 6 mg/kg daily i.p., Days 1-5 (total 30 mg/kg), Ex. 12) was 11 days, the IC50 (HCT/VP35) was 0.82 µg/mL (≈ 3.26 µM) and the “ratio of IC50 values HCT/VP35 vs HCT116” value (HCT/VP35) was 0.8. The IC50 (HCT116) was 1.02 µg/mL (≈ 4.05 µM), the IC50 (HCT/VM46) was 0.44 µg/mL (≈ 1.75 µM) and the “ratio of IC50 values HCT/VM46 vs HCT116” value (HCT/VM46) was 0.4. The “AA (alkylating activity, absorption at 560 nm)” value ([4]; alkalinized alkyl-NBP, mean ± S.D.) was 0.75 ± 0.004, the “alkylating activity relative to mechlorethamine HCl” value ([4]; mechlorethamine HCl = 100%) was 140% and the “alkylating activity, percent of nor-nitrogen mustard” value ([4]; relative to nor-nitrogen mustard) was 170%. For the same molecule, the IC50 [6] was 2300 ± 1600 nM, the IC50 (L1210/0) was 550 nM and the IC50 [7] was 2800 nM. For the same molecule, the maximally tolerated duration [8] was 10 days, the “Ratio of IC50s (L1210/L-PAM vs L1210/0)” value (L1210/L-PAM) was 0.9 and the IC50 (L1210/L-PAM) was 510 nM. For the same molecule, the “log(kN/knbp)” value [5] was 1.95 ± 0.11 and the “log(kN/knbp)” value ([5]; listed as SKI-273) was 1.95±0.11.
For `C[Se](=O)(=O)c1ccccc1` [PhSeO2 CH3], the “reactivity in methylation of dimethylsulfide” value [9] is given as “three times as reactive as methyl iodide”.
